This note sets out measurements from patent US20230303494A1, “BENZYLAMINE DERIVATIVE, PREPARATION METHOD THEREFOR AND USE THEREOF” (ACADEMY OF MILITARY MEDICAL SCIENCES, priority 2020, published 2023).

A value given as a limit tells only on which side of the number the result lay.

One assay concerns the target PD-1/PD-L1 interaction (Homo sapiens (Human), UniProt Q9NZQ7). Put plainly: PD-1/PD-L1 Binding Assay kit (Cisbio), HTRF. Conditions: 8-10 concentrations, read-out: IC50 of inhibition of PD-1/PD-L1 interaction. In general terms: Time-resolved FRET reads energy transfer from a long-lived donor to a nearby acceptor.
The next assay addresses human PD-L1 (Homo sapiens (Human), UniProt Q9NZQ7). Put plainly: Biofilm interferometry (BLI, OctetRED) binding to human PD-L1/AVI. As to conditions: 1:1 binding model; for koff: read-out: Kdis. The procedure:
In the experiment, the instrument OctectRED of Fortebio Company based on biofilm interferometry (BLI) technology was used to capture human PD-L1/AVI with SA chips. The concentration of antigen PD-L1/AVI was diluted to 10 μg/mL with running buffer (PBS+0.02% Tween-20+2% DMSO), and the loading time was 300 s; similarly, the analyte was also diluted to the corresponding concentrations (20 nM, 10 nM, 5 nM, 2.5 nM, 1.25 nM, 0.625 nM, 0.3125 nM) with running buffer in gradient manner, and a buffer blank control group was set at the same time. The binding time of human PD-L1/AVI to the analyte was 180 s, and the dissociation time was 300 s; the chip was regenerated with 10 mM glycine HCl, pH 1.7 solution and repeated 5-second pulse for 3 times. The data were fitted to a 1:1 binding model to determine the equilibrium dissociation constant KD.

For assay [1], the system named is Human peripheral blood mononuclear cells (PBMCs). Put plainly: Promotion of IFN-γ secretion in PBMCs treated with anti-CD3/anti-CD28 and PDL1/FC fusion protein (ELISA). Conditions: for IFN-γ / Increase rate of IFN-γ expression vs PDL1 treatment: hPD-L1 10.0 μg/mL, 72 h; for effect on promoting IFN-γ secretion at the cellular level: in words, better than that of BMS202. Type of assay: cell-based. The procedure: Human peripheral blood mononuclear cells (PBMCs) were isolated from 10-15 ml of whole blood of healthy volunteers using experimental human lymphocyte separation medium (TBD sciences). The cells were washed twice with normal saline and resuspended in buffer (RPMI 1640 complete medium containing 10% FBS, SIGMA) to count the cell density. The PBMCs were dispersed and placed in a 96-well plate, 1×10^5 cells and 50 μL of buffer per well. Anti-CD3 antibody (SIGMA) and anti-CD28 antibody (SIGMA) were mixed at a ratio of 1:1 to obtain an antibody mixture. The antibody mixture was added to the wells to ensure that the final concentration of antibody was 0.8 μg/mL. At the same time, PDL1/FC fusion protein (SINO BIOLOGICAL) was added to reach a final concentration of 10.0 μg/mL, and the compound to be tested was diluted with buffer and added to the wells to reach a final concentration of 0.1 μM or 1 μM. The mixed system was incubated at 37° C. and 5% CO2 for 72 h. The supernatant was collected, and the expression level of IFN-γ was measured by ELISA MAXTM Human IFN-γ Standard Kit (BioLegend), and the increase rate was calculated. Increase rate (%)=(expression amount of compound treatment−expression amount of PDL1 treatment)/expression amount of PDL1 treatment×100%
A general note: An ELISA detects its analyte on a solid surface through an enzyme-linked reagent.

Another assay concerns Raji cells. Put plainly: Cytotoxicity, Cell Titer-Glo, Raji cells. As to conditions: Homo sapiens, 24 hours incubation, read-out: Raji cells IC50 (cell death). Type of assay: cell-based. The procedure:
(§1) The raji (ATCC), raw (ATCC) and PBMCs cells were suspended in buffer (RPMI 1640 complete medium containing 10% FBS, SIGMA), respectively, and the cell density was counted. The cells were transferred to wells of a 96-well plate, ensuring that the cell density of each well was 1×10^4 cells/well, and incubated for 24 hours at 37° C., 5% CO2 with compounds at different concentrations (100 μM, 50 μM, 25 μM, 12.5 μM, 6.25 μM and 3.125 μM) and buffer control solution (0.2% DMSO). To each well, 100 μL of Cell Titer-Glo Luminescent Solution (Promega) was added and shaken for 10 minutes at room temperature, and then GloMax® Navigator System was used to measure the system […], and the cell death rate was calculated. Cell death rate (%)=(1−RLUcompound/RLUcontrol)×100%, and IC50 was determined from the inhibition curve.

For another assay, the system named is Raw cells. Put plainly: Cytotoxicity, Cell Titer-Glo, Raw cells. As to conditions: 24 hours incubation; read-out: Raw cells IC50 (cell death). Type of assay: cell-based. The procedure: as §1
A general note: ATP-based viability assays read luminescence as a measure of living cells.

The subject of another assay is PBMCs cells. Put plainly: Cytotoxicity, Cell Titer-Glo, PBMCs cells. The assay is classed as cell-based. As to conditions: Homo sapiens, PBMC; 24 hours incubation; read-out: PBMCs cells IC50 (cell death). The protocol:
as §1

Assay [2] deals with colon cancer cell line MC38 (mouse PD-L1 knockout, human PD-L1 knockin). Put plainly: Antitumor efficacy in vivo in PD-1 humanized mice inoculated with PD-L1 humanized MC38 cells. As to conditions: 15 mg/kg intraperitoneal injection once per day for three weeks, compared with the control group. The text has this:
Based on the mechanism that PD-1/PD-L1 inhibitors activated the immune system to achieve anti-tumor effects by interfering with the interaction of PD-1/PD-L1, the animal models used in vivo efficacy experiments must be animals with healthy immune systems; in addition, the species differences of PD-1/PD-L1 between animals and humans are considered. Therefore, the in vivo antitumor pharmacodynamics evaluation model of the present invention adopted PD-1 humanized mice, and the inoculated tumors were PD-L1 humanized tumor cells. This evaluation model could more accurately reflect the in vivo efficacy of the compound.
24 PD-1 humanized mice (full name of strain: C57BL/6J-Pdcd1^em1(hPDCD1)/Smoc) about 6 weeks old were purchased from Shanghai Southern Model Animal Center, and placed in SPF grade animal breeding room for observation for 1 to 2 weeks. After the animals were adapted to the raising environment, the genetically engineered colon cancer cell line MC38 (mouse PD-L1 knockout, human PD-L1 knockin) was subcutaneously inoculated to the mice near the hind leg groin, and the inoculated cell volume was 1×10^6 cells per mouse. […] During the experiment, the tumor size and mouse body weight were measured and recorded, and the mice were sacrificed at the end of the experiment. […]

Chain of human PD-L1 (Q9NZQ7 19-290): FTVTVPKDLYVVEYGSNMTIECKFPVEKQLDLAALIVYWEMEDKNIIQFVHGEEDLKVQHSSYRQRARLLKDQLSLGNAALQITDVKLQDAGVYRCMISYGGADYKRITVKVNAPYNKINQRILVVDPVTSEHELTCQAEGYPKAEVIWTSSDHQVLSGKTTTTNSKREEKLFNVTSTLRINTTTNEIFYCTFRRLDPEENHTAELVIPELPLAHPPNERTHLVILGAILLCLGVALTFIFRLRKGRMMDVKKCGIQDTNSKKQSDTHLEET
Chain of PD-1/PD-L1 interaction (Q9NZQ7 19-238): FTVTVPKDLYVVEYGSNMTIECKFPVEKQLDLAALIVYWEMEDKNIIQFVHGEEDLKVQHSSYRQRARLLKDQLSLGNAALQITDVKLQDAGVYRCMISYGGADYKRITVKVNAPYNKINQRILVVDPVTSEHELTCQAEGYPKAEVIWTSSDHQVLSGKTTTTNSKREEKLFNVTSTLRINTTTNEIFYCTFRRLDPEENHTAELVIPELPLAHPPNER

As a reminder, the Kd is the concentration at which binding is half-saturated. Higher therefore signals lower affinity. The kon is the second-order rate constant of association. `Cc1cc(CN[C@H](CO)C(=O)O)c(OCc2cncc(C#N)c2)cc1NCc1cccc(-c2ccccc2)c1C` [Compound 5]: the IC50 at PD-1/PD-L1 interaction is 12 nM; with Raji cells, over 100000 nM; with Raw cells it was over 100000 nM; in the assay on PBMCs cells, over 100000 nM. Also, the dissociation constant Kd at human PD-L1 is 0.0162 nM. Also, the association rate constant (kon) at human PD-L1 is 2.17e+06 M⁻¹ s⁻¹. Moreover, on human PD-L1, the koff is 3.53e-05 s⁻¹. Also, the results for the IFN-γ in assay [1] (compound 0.1 μM) and in assay [1] (compound 1.0 μM) were 38300 pg/mL and 42400 pg/mL, respectively. Besides, the “Increase rate of IFN-γ expression vs PDL1 treatment” value in assay [1] (compound 0.1 μM) was found to be 79.8%; in assay [1] (compound 1.0 μM) it was 99.1%. Moreover, the “effect on promoting IFN-γ secretion at the cellular level” value in assay [1] is “significant effect on promoting IFN-γ secretion”. In assay [2], the growth of tumors result is listed as “significantly inhibit the growth of tumors”.
For `Cc1c(CNc2ccc(CN[C@H](CO)C(=O)O)c(OCc3cncc(C#N)c3)c2)cccc1-c1ccccc1` [Compound 10], the IC50 on PD-1/PD-L1 interaction was 38 nM; in the assay with Raji cells it was over 100000 nM; in the assay with Raw cells, over 100000 nM; in the assay with PBMCs cells, over 100000 nM. For the same compound, the Kd at human PD-L1 was determined as 0.296 nM. On human PD-L1, the association rate constant (kon) stood at 849000 M⁻¹ s⁻¹. The koff on human PD-L1 stood at 0.000251 s⁻¹. Moreover, the values for the IFN-γ in assay [1] (compound 0.1 μM) and in assay [1] (compound 1.0 μM) were 37700 pg/mL and 41500 pg/mL, respectively. Also, the “Increase rate of IFN-γ expression vs PDL1 treatment” value in assay [1] (compound 0.1 μM) is 77.0%; in assay [1] (compound 1.0 μM), 94.8%. The “effect on promoting IFN-γ secretion at the cellular level” value in assay [1] is recorded as “significant effect on promoting IFN-γ secretion”.
